Measurements as given in the NIST ThermoML archive (doi:10.1021/acs.jced.8b00554).

Assay: xn = mol fraction of the nth substance listed
Settings: Liquid, Vibrating tube method

CCCCCCCCC [nonane] + CCCO
Settings	mass density [kg/m3]
333.15 K, 6020 kPa, x2 = 0.1231	692.22
333.15 K, 6020 kPa, x2 = 0.3229	700.03
333.15 K, 7000 kPa, x2 = 0.2315	697.33
333.15 K, 7010 kPa, x2 = 0.1231	693.22
333.15 K, 7010 kPa, x2 = 0.3229	701.03
333.15 K, 7010 kPa, x2 = 0.4272	706.53
333.15 K, 7010 kPa, x2 = 0.7021	728.53
333.15 K, 7010 kPa, x2 = 0.8941	754.12
333.15 K, 8000 kPa, x2 = 0.3229	702.03
333.15 K, 8010 kPa, x2 = 0.1231	694.22
333.15 K, 8010 kPa, x2 = 0.7021	729.53
333.15 K, 8010 kPa, x2 = 0.8941	755.09
333.15 K, 8020 kPa, x2 = 0.2315	698.33
333.15 K, 8020 kPa, x2 = 0.4272	707.53
333.15 K, 9010 kPa, x2 = 0.2315	699.32
333.15 K, 9010 kPa, x2 = 0.3229	703.05
333.15 K, 9010 kPa, x2 = 0.4272	708.53
333.15 K, 9010 kPa, x2 = 0.7021	730.52
333.15 K, 9010 kPa, x2 = 0.8941	756.05
333.15 K, 9020 kPa, x2 = 0.1231	695.19
333.15 K, 10010 kPa, x2 = 0.1231	696.17
333.15 K, 10010 kPa, x2 = 0.2315	700.3
333.15 K, 10010 kPa, x2 = 0.3229	704.04
333.15 K, 10010 kPa, x2 = 0.4272	709.54
333.15 K, 10020 kPa, x2 = 0.7021	731.49
333.15 K, 10020 kPa, x2 = 0.8941	757
333.15 K, 11010 kPa, x2 = 0.1231	697.14
333.15 K, 11010 kPa, x2 = 0.2315	701.27
333.15 K, 11010 kPa, x2 = 0.3229	705.01
333.15 K, 11010 kPa, x2 = 0.4272	710.52
333.15 K, 11010 kPa, x2 = 0.7021	732.46
333.15 K, 11010 kPa, x2 = 0.8941	757.95
333.15 K, 12000 kPa, x2 = 0.1231	698.08
333.15 K, 12000 kPa, x2 = 0.2315	702.25
333.15 K, 12000 kPa, x2 = 0.3229	705.98
333.15 K, 12010 kPa, x2 = 0.4272	711.48
333.15 K, 12010 kPa, x2 = 0.8941	758.88
333.15 K, 12020 kPa, x2 = 0.7021	733.42
333.15 K, 13000 kPa, x2 = 0.3229	706.94
333.15 K, 13000 kPa, x2 = 0.8941	759.79
333.15 K, 13010 kPa, x2 = 0.1231	699.03
333.15 K, 13010 kPa, x2 = 0.4272	712.44
333.15 K, 13010 kPa, x2 = 0.7021	734.37
333.15 K, 13020 kPa, x2 = 0.2315	703.18
333.15 K, 14000 kPa, x2 = 0.3229	707.87
333.15 K, 14010 kPa, x2 = 0.1231	699.96
333.15 K, 14010 kPa, x2 = 0.2315	704.11
333.15 K, 14010 kPa, x2 = 0.4272	713.39
333.15 K, 14010 kPa, x2 = 0.7021	735.32
333.15 K, 14010 kPa, x2 = 0.8941	760.71
333.15 K, 15000 kPa, x2 = 0.2315	705.02
333.15 K, 15010 kPa, x2 = 0.1231	700.86
333.15 K, 15010 kPa, x2 = 0.3229	708.79
333.15 K, 15010 kPa, x2 = 0.4272	714.3
333.15 K, 15010 kPa, x2 = 0.7021	736.23
333.15 K, 15010 kPa, x2 = 0.8941	761.6
333.15 K, 16000 kPa, x2 = 0.4272	715.23
333.15 K, 16000 kPa, x2 = 0.8941	762.49
333.15 K, 16010 kPa, x2 = 0.1231	701.75
333.15 K, 16010 kPa, x2 = 0.2315	705.94
333.15 K, 16010 kPa, x2 = 0.3229	709.71
333.15 K, 16020 kPa, x2 = 0.7021	737.15
333.15 K, 17000 kPa, x2 = 0.3229	710.61
333.15 K, 17010 kPa, x2 = 0.7021	738.03
333.15 K, 17010 kPa, x2 = 0.8941	763.38
333.15 K, 17020 kPa, x2 = 0.1231	702.63
333.15 K, 17020 kPa, x2 = 0.2315	706.85
333.15 K, 17020 kPa, x2 = 0.4272	716.11
333.15 K, 18000 kPa, x2 = 0.3229	711.48
333.15 K, 18000 kPa, x2 = 0.4272	717
333.15 K, 18000 kPa, x2 = 0.8941	764.23
333.15 K, 18010 kPa, x2 = 0.1231	703.52
333.15 K, 18010 kPa, x2 = 0.2315	707.71
333.15 K, 18010 kPa, x2 = 0.7021	738.91
333.15 K, 19000 kPa, x2 = 0.1231	704.35
333.15 K, 19000 kPa, x2 = 0.2315	708.54
333.15 K, 19000 kPa, x2 = 0.8941	765.08
333.15 K, 19010 kPa, x2 = 0.3229	712.34
333.15 K, 19010 kPa, x2 = 0.4272	717.85
333.15 K, 19010 kPa, x2 = 0.7021	739.77
333.15 K, 20000 kPa, x2 = 0.2315	709.37
333.15 K, 20000 kPa, x2 = 0.8941	765.89
333.15 K, 20010 kPa, x2 = 0.7021	740.63
333.15 K, 20020 kPa, x2 = 0.1231	705.18
333.15 K, 20020 kPa, x2 = 0.3229	713.17
333.15 K, 20020 kPa, x2 = 0.4272	718.7
343.15 K, 100 kPa, x2 = 0.1231	677.91
343.15 K, 100 kPa, x2 = 0.2315	680.7
343.15 K, 100 kPa, x2 = 0.3229	683.88
343.15 K, 100 kPa, x2 = 0.4272	688.89
343.15 K, 100 kPa, x2 = 0.7021	710.15
343.15 K, 100 kPa, x2 = 0.8941	735.96
343.15 K, 1000 kPa, x2 = 0.2315	681.31
